We go through 24 molecules from patent US20230399312A1, “SUBSTITUTED PYRIMIDINES AND METHODS OF USE” (THERAVANCE BIOPHARMA R&D IP, LLC, priority 2020, published 2023).

Usually pKi stands for −log10 of the Ki, conventionally taken in molar units.

pKi: −log10 of the molar value. Where only a bound is given, the exact number is not on record here.

Test [1] has as its system TGF-β-stimulated SMAD3 phosphorylation in BEAS-2B cells. As to the kind of experiment: Cellular ALK5 potency assay, inhibition of TGF-β stimulated pSMAD3 formation in BEAS-2B cells. In kind it is cell-based. As to conditions: Homo sapiens, pSMAD3, TGF-β 10 ng/mL, read-out: BEAS2B pIC50 (converted). In outline:
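Human lung epithelial BEAS-2B cells were pre-treated with compound for 1 h at 37 °C, then stimulated with TGF-β (final 10 ng/mL) for 30 min before lysis. pSMAD3 was quantified by AlphaLISA and pIC50 derived from dose-dependent signal change versus TGF-β-stimulated untreated cells.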

Test [2] has as its target T1, recombinant human ALK5 (TGF-βR1) protein (Homo sapiens, UniProt P36897).
T1 construct: purchased Life Technologies PR9075A
T1 sequence (P36897 34-503): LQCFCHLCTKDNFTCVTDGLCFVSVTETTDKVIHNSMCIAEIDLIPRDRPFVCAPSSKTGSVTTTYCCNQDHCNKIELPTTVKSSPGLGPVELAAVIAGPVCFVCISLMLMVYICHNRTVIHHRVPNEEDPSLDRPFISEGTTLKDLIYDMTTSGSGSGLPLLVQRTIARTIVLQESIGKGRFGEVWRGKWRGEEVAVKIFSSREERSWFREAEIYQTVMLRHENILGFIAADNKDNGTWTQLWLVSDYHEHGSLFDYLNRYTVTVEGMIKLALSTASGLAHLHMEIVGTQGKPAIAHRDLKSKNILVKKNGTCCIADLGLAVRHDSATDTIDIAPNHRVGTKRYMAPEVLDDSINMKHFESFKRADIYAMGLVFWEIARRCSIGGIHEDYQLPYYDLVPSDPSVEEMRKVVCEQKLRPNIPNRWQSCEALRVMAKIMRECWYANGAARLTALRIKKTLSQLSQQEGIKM
Nature of the test: Biochemical ALK5 (TGF-βR1) assay to measure pKi (LANCE Ultra ULight kinase assay). As to conditions: apparent pKi, converted from pIC50 by Cheng-Prusoff. The procedure, abridged: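 Enzyme was preincubated with compound for 60 min at room temperature, then ATP (added from a 125 μM 5× stock with 2 mM DTT) started a 60 min reaction at 37 °C. EDTA plus Eu-anti-phospho-Topo2α (Thr1342) antibody stopped it; TR-FRET pIC50 values were converted to pKi by Cheng-Prusoff.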
In general terms: TR-FRET usually uses a lanthanide donor and a delayed reading to cut background.

Take `CCOC(=O)Cc1ccc(Nc2nccc(Nc3ccnc(-c4cccc(C)n4)n3)n2)cc1` [Compound 304, ethyl 2-[4-[[4-[[2-(6-methyl-2-pyridyl)pyrimidin-4-yl]amino]pyrimidin-2-yl]amino]phenyl]acetate]: in test [1], the IC50 was 25.1 to 158 nM. Further, in test [2], the negative logarithm of the Ki (pKi) is 8.50 to 9.40.

On to `Cc1cccc(-c2nccc(Nc3ccnc(Nc4ccc(C5=CCNC5)cc4)n3)n2)n1` [Compound 331, N2-[4-(2,5-dihydro-1H-pyrrol-3-yl)phenyl]-N4-[2-(6-methyl-2-pyridyl)pyrimidin-4-yl]pyrimidine-2,4-diamine], for which, in test [1], the IC50 is at most 20 nM. Moreover, the pKi in test [2] is at least 10.50.

Consider `Cc1cccc(-c2nccc(Nc3ccnc(Nc4ccc(S(=O)(=O)NCCN)cc4)n3)n2)n1` [Compound 208, N-(2-aminoethyl)-4-[[4-[[2-(6-methyl-2-pyridyl)pyrimidin-4-yl]amino]pyrimidin-2-yl]amino]benzenesulfonamide], for which, in test [1], the IC50 was at most 20 nM. Moreover, in test [2], the pKi was at least 10.50.

For `Cc1cccc(-c2nccc(Nc3ccnc(Nc4ccc(Cl)c(CN5CCNCC5)c4)n3)n2)n1` [Compound 49, N2-[4-chloro-3-(piperazin-1-ylmethyl)phenyl]-N4-[2-(6-methyl-2-pyridyl)pyrimidin-4-yl]pyrimidine-2,4-diamine], in test [1], the IC50 is 25.1 to 158 nM. The pKi in test [2] is 9.50 to 10.40.

On to `Cc1cccc(-c2nccc(Nc3ccnc(Nc4ccc(C5CCNCC5)cn4)n3)n2)n1` [Compound 114, N4-[2-(6-methyl-2-pyridyl)pyrimidin-4-yl]-N2-[5-(4-piperidyl)-2-pyridyl]pyrimidine-2,4-diamine], for which the IC50 in test [1] was 200 to 1260 nM. Besides, in test [2], the pKi is 8.50 to 9.40.

On to `COC(=O)[C@@H]1CN(Cc2ccc(Nc3nccc(Nc4ccnc(-c5cccc(C)n5)n4)n3)cc2)CCN1` [Compound 254, methyl (2S)-4-[[4-[[4-[[2-(6-methyl-2-pyridyl)pyrimidin-4-yl]amino]pyrimidin-2-yl]amino]phenyl]methyl] piperazine-2-carboxylate], for which, in test [1], the IC50 is at most 20 nM. Also, the pKi in test [2] was 9.50 to 10.40.

As to `Cc1cccc(-c2nccc(Nc3ccnc(Nc4ccc(C(=O)OC[C@H]5CCCCN5)nc4)n3)n2)n1` [Compound 628, [(2R)-2-piperidyl]methyl 5-[[4-[[2-(6-methyl-2-pyridyl)pyrimidin-4-yl]amino]pyrimidin-2-yl]amino]pyridine-2-carboxylate], the IC50 in test [1] was 25.1 to 158 nM. In addition, the negative-log Ki (pKi) in test [2] is 9.50 to 10.40.

Regarding `Cc1cccc(-c2nccc(Nc3ccnc(Nc4ccnc(C(=O)OCC5CNC5)c4)n3)n2)n1` [Compound 616, azetidin-3-ylmethyl 4-[[4-[[2-(6-methyl-2-pyridyl)pyrimidin-4-yl]amino]pyrimidin-2-yl]amino]pyridine-2-carboxylate], the IC50 in test [1] is 25.1 to 158 nM. The pKi in test [2] is 8.50 to 9.40.

Take `Cc1cccc(-c2nccc(Nc3ccnc(Nc4ccc(C(=O)O)s4)n3)n2)n1` [Compound 439, 5-[[4-[[2-(6-methyl-2-pyridyl)pyrimidin-4-yl]amino]pyrimidin-2-yl]amino]thiophene-2-carboxylic acid]: the IC50 in test [1] was 200 to 1260 nM. For the same molecule, in test [2], the negative logarithm of the Ki (pKi) was 8.50 to 9.40.

Take `Cc1cccc(-c2nccc(Nc3ccnc(Nc4ccc(COCCO)cc4)n3)n2)n1` [Compound 513, 2-[[4-[[4-[[2-(6-methyl-2-pyridyl)pyrimidin-4-yl]amino]pyrimidin-2-yl]amino]phenyl]methoxy] ethanol]: in test [1], the IC50 is 25.1 to 158 nM. The negative logarithm of the Ki (pKi) in test [2] is 8.50 to 9.40.

As to `Cc1cccc(-c2nccc(Nc3ccnc(Nc4ccc(CN5C[C@@H](C)NC[C@H]5C)cc4)n3)n2)n1` [Compound 32, N2-[4-[[(2R,5R)-2,5-dimethylpiperazin-1-yl]methyl]phenyl]-N4-[2-(6-methyl-2-pyridyl)pyrimidin-4-yl]pyrimidine-2,4-diamine], the IC50 in test [1] was 25.1 to 158 nM. For the same molecule, the negative logarithm of the Ki (pKi) in test [2] is 9.50 to 10.40.

For the molecule `Cc1cccc(-c2nccc(Nc3ccnc(Nc4ccc(N5CCN(C(=O)CSC6CCOC6=O)CC5)cc4)n3)n2)n1` (stereo not drawn) [Compound 149, 3-[2-[4-[4-[[4-[[2-(6-methyl-2-pyridyl)pyrimidin-4-yl]amino]pyrimidin-2-yl]amino]phenyl]piperazin-1-yl]-2-oxo-ethyl] sulfanyltetrahydrofuran-2-one], the IC50 in test [1] was 25.1 to 158 nM. Moreover, the negative-log Ki (pKi) in test [2] was 9.50 to 10.40.

With `Cc1cccc(-c2nccc(Nc3ccnc(Nc4ccc(CN5CCCC(C(=O)O[C@@H]6CCNC6)C5)cc4)n3)n2)n1` (mixture of isomers) [Compound 105, [rac-(3R)-pyrrolidin-3-yl] 1-[[4-[[4-[[2-(6-methyl-2-pyridyl)pyrimidin-4-yl]amino]pyrimidin-2-yl]amino]phenyl]methyl] piperidine-3-carboxylate], the IC50 in test [1] is 25.1 to 158 nM. Moreover, the pKi in test [2] is 9.50 to 10.40.

In the case of `Cc1cccc(-c2nccc(Nc3ccnc(Nc4nc(CN5CCC[C@@H](C(=O)OCC6CNC6)C5)cs4)n3)n2)n1` [Compound 155, azetidin-3-ylmethyl (3R)-1-[[2-[[4-[[2-(6-methyl-2-pyridyl)pyrimidin-4-yl]amino]pyrimidin-2-yl]amino]thiazol-4-yl]methyl]piperidine-3-carboxylate], in test [1], the IC50 is 200 to 1260 nM. For the same molecule, the pKi in test [2] is 8.50 to 9.40.

Regarding `Cc1cccc(-c2nccc(Nc3ccnc(Nc4ccc(CN5CC(N(C)C)C5)cc4)n3)n2)n1` [Compound 501, N2-[4-[[3-(dimethylamino)azetidin-1-yl]methyl]phenyl]-N4-[2-(6-methyl-2-pyridyl)pyrimidin-4-yl]pyrimidine-2,4-diamine], the IC50 in test [1] was 25.1 to 158 nM. In addition, the negative-log Ki (pKi) in test [2] was 9.50 to 10.40.

On to `Cc1cccc(-c2nccc(Nc3ccnc(Nc4cccc(NCC5CNC5)c4)n3)n2)n1` [Compound 118, N2-[3-(azetidin-3-ylmethylamino)phenyl]-N4-[2-(6-methyl-2-pyridyl)pyrimidin-4-yl]pyrimidine-2,4-diamine], for which the IC50 in test [1] was 25.1 to 158 nM. Moreover, in test [2], the pKi was 9.50 to 10.40.

As to `Cc1cccc(-c2nccc(Nc3ccnc(Nc4ccc(C(=O)OCC5CNC5)cn4)n3)n2)n1` [Compound 564, azetidin-3-ylmethyl 6-[[4-[[2-(6-methyl-2-pyridyl)pyrimidin-4-yl]amino]pyrimidin-2-yl]amino]pyridine-3-carboxylate], the IC50 in test [1] was 200 to 1260 nM. The pKi in test [2] is 7.50 to 8.40.

With `Cc1cccc(-c2nccc(Nc3ccnc(Nc4ccc(CN5CCCC(C(=O)NC6CCNC6)C5)cc4)n3)n2)n1` (racemic) [Compound 456, 1-[[4-[[4-[[2-(6-methyl-2-pyridyl)pyrimidin-4-yl]amino]pyrimidin-2-yl]amino]phenyl]methyl]-N-[rac-(3R)-pyrrolidin-3-yl]piperidine-3-carboxamide], in test [1], the IC50 was 25.1 to 158 nM. For the same molecule, in test [2], the pKi was 9.50 to 10.40.

For the molecule `Cc1cccc(-c2nccc(Nc3ccnc(Nc4csc(C(=O)OC[C@@H]5CCC[C@@H](N)C5)c4)n3)n2)n1` [Compound 635, [(1R,3R)-3-aminocyclohexyl]methyl 4-[[4-[[2-(6-methyl-2-pyridyl)pyrimidin-4-yl]amino]pyrimidin-2-yl]amino]thiophene-2-carboxylate], the IC50 in test [1] is 25.1 to 158 nM. In test [2], the negative-log Ki (pKi) is 9.50 to 10.40.

For the molecule `COC(=O)CC1CN(Cc2ccc(Nc3nccc(Nc4ccnc(-c5cccc(C)n5)n4)n3)cc2)CCN1` (stereo not drawn) [Compound 451, methyl 2-[4-[[4-[[4-[[2-(6-methyl-2-pyridyl)pyrimidin-4-yl]amino]pyrimidin-2-yl]amino]phenyl]methyl]piperazin-2-yl]acetate], the IC50 in test [1] was 25.1 to 158 nM. Further, the pKi in test [2] was 9.50 to 10.40.

`Cc1cccc(-c2nccc(Nc3ccnc(Nc4ccc(NS(=O)(=O)N5CCN(C)CC5)cc4)n3)n2)n1` [Compound 303, 4-methyl-N-[4-[[4-[[2-(6-methyl-2-pyridyl)pyrimidin-4-yl]amino]pyrimidin-2-yl]amino]phenyl]piperazine-1-sulfonamide]: the IC50 in test [1] is 25.1 to 158 nM. In addition, the pKi in test [2] was 8.50 to 9.40.

Consider `Cc1cccc(-c2nccc(Nc3ccnc(Nc4ccc(S(=O)(=O)N5CCN(CCO)CC5)cc4)n3)n2)n1` [Compound 541, 2-[4-[4-[[4-[[2-(6-methyl-2-pyridyl)pyrimidin-4-yl]amino]pyrimidin-2-yl]amino]phenyl]sulfonylpiperazin-1-yl]ethanol], for which the IC50 in test [1] is 25.1 to 158 nM. Also, the pKi in test [2] was 9.50 to 10.40.

Consider `Cc1cccc(-c2nccc(Nc3ccnc(Nc4ccc(CN5C[C@@H](C)N[C@@H](C)C5)cc4)n3)n2)n1` [Compound 240, N2-[4-[[(3R,5S)-3,5-dimethylpiperazin-1-yl]methyl]phenyl]-N4-[2-(6 methyl-2-pyridyl)pyrimidin-4-yl]pyrimidine-2,4-diamine], for which the IC50 in test [1] was 25.1 to 158 nM. For the same molecule, the pKi in test [2] is 9.50 to 10.40.

As to `Cc1cccc(-c2nccc(Nc3ccnc(Nc4ccc(CN5CC[C@H](O)C5)cc4)n3)n2)n1` [Compound 74, (3S)-1-[[4-[[4-[[2-(6-methyl-2-pyridyl)pyrimidin-4-yl]amino]pyrimidin-2-yl]amino]phenyl]methyl] pyrrolidin-3-ol], the IC50 in test [1] was 25.1 to 158 nM. Moreover, in test [2], the pKi was 9.50 to 10.40.
